# Measured values published in patent publication US11179450B2, “Long chain antigen containing interepitope sequence that promotes antigen presentation to T cells” (MIE UNIVERSITY, priority 2013, dated 2021).
# Experiments:
# [1] = test system: mouse fibrosarcoma cell line CMS5a; experiment: Mouse tumor growth test; assay type: in vivo, BALB/c mice; details: FIG. 2; single dose of vaccine with CpG oligo DNA before subcutaneous CMS5a implantation (prophylactic condition); Student's t test
# Description: Long chain peptide antigens MEN, all containing three types of mouse CD8+ T cell epitope sequences (MA p265 (Sequence No. 27), NY p81 (Sequence No. 29), and mERK2 9m (Sequence No. 28)), were synthesized. The interepitope sequences between the respective epitopes were respectively six consecutive tyrosines (Y6) (Sequence No. 1), six consecutive glycines (G6) (Sequence No. 2), or six consecutive prolines (P6) (Sequence No. 3). Each long chain peptide antigen was complexed with CHP and administered in a single dose as a vaccine to a mouse. As a control, a short chain peptide vaccine, constituted of just the mERK2 9m peptide, was mixed with Freund's incomplete adjuvant and administered. In the process of administration, CpG oligo DNA was coadministered as an adjuvant. On the day after administration, a mouse fibrosarcoma cell line CMS5a, expressing mERK2 as a tumor antigen and presenting the CD8+ T cell epitope mERK2 9m derived from the same antigen, was implanted subcutaneously and its growth was recorded over time.
# A subcloned CMS5a cell line, obtained from a CMS5 cell line isolated from fibrosarcoma induced by administering 3-methylcholanthrene to a BALB/c mouse, expresses mutant ERK2 (mERK2) as a tumor antigen and presents a CD8^+ T cell epitope derived from the mERK2. The CMS5a cell line cultured in a T75 flask (Nunc) was detached using PBS containing 0.5% trypsin and collected in RPMI1640 medium containing 10% FBS. After centrifuging (400×g, 5 minutes, 4° C.), the supernatant was removed, and the cells were rinsed twice with RPMI1640 medium, thereafter suspended in RPMI1640 medium at a concentration of 1×10^6 cells/100 μL, and implanted subcutaneously in BALB/c mice at a dose of 100 μL/individual. The CHP/long chain peptide complexes and the adjuvant were administered 7 days before tumor implantation (prophylactic condition). After tumor implantation, the length and breadth of the tumor were measured and the product thereof was recorded as tumor size. The data in the tumor growth test were compared by Student's t test using Microsoft® Excel® (Microsoft Corporation).
# [2] = test system: mERK2 9m specific CD8+ T cells; experiment: Specific CD8+ T cell induction in mice, intracellular cytokine staining (mERK2 9m epitope); assay type: in vivo, BALB/c mice
# Description: (§1) Long chain peptide antigens MEN, all containing three types of mouse CD8+ T cell epitope sequences (MA p265 (Sequence No. 27), NY p81 (Sequence No. 29), and mERK2 9m (Sequence No. 28)), were synthesized. The interepitope sequences between the respective epitopes were one to six consecutive tyrosines (Sequence Nos. 1 and 9-12). Vaccines containing the respective long chain peptide antigens were administered to mice in the same manner as in FIG. 1 and the frequencies of CD8+ T cells specific to the respective epitope sequences were measured by the intracellular cytokine staining method.
# as §1, with “five” for “one”, “ten” for “six”, “13-15).” for “9-12).”
# Each CHP/long chain peptide complex as the vaccine and the CpG oligo DNA as the adjuvant were administered at the same time to a mouse. Administration was performed by subcutaneous injection on the back of the mouse. As the dose, the CHP/long chain peptide complex was administered at 0.05 to 0.1 mg equivalent of long chain peptide per administration. The CpG oligo DNA was administered at 0.05 mg per administration. One week after the final administration, spleen cells were separated by the following procedure from each vaccine-administered mouse. The spleen was isolated from the mouse and removed of blood by rinsing with RPMI1640 medium. After the spleen was triturated using a glass slide, the released cells were collected in RPMI1640 medium. After centrifuging (400×g, 5 minutes, 4° C.), the supernatant was removed and the cells were treated for 1 minute by adding 2 mL of ACK solution. […]
sequence,measurement,setting,value
"SNPARYEFLYYYYYYQYIHSANVLYYYYYYRGPESRLL (Long chain peptide antigen, containing three types of mouse CD8+ T cell epitope sequences (MA p265, NY p81, and mERK2 9m)) [MEN(Y6)]",growth of the tumor,[1],suppressed significantly (p<0.05)
same,"induction of specific CD8+ T cells, mERK2 9m (second epitope)","[2]; FIG. 6, comparing one to six tyrosines",observed to some degree
same,"induction of specific CD8+ T cells, mERK2 9m (second epitope)","[2]; FIG. 7, comparing five to ten tyrosines",highest
